As a reminder, the melting point is the temperature of the solid-liquid transition.

Compound `COC(=O)C(C(=O)c1ccc(Cn2ccc3ccc(NC(=O)CC4CCCC4)cc32)c(OC)c1)S(=O)(=O)c1ccccc1` (centres undefined) yielded a melting point of 93 to 98 °C.

Compound `CC1(C)OC(=O)C(CO)(c2ccc(Cl)cc2Cl)O1` (centres undefined) yielded a melting point of 182 to 185 °C.

As for `O=Cc1ccc(C(=O)Nc2ccc(OCC(F)(F)C(F)F)cc2)cc1`, the melting point was determined as 152 °C.

The compound `CN(C)c1ccc(C2=NC[C@@H](OC(=O)Nc3ccccc3)[C@H](c3ccccc3)O2)cc1` (racemic) yielded a melting point of 172 °C.

Regarding `CN1CCCCCC1=NC(=O)Nc1cccc(Cl)c1`, the melting point lay within 115 to 118 °C.

`O=C(O)C1=Cc2cc(Br)ccc2S(=O)(=O)CC1`: the melting point fell in the range of 290 to 300 °C.

Consider `O=c1n(-c2ccc(C(F)(F)F)cc2)c(=O)n2n1CC(c1ccccc1)C2c1ccc(Cl)cc1` (centres undefined), for which the melting point lay within 148 to 150 °C.

Compound `Cc1ccc(OCC(=O)c2ccccc2)cc1` registered a melting point of 65 °C.

Compound `COC(=O)NNC(=O)c1ccc([N+](=O)[O-])o1` gave a melting point of 155 °C.

The compound `CC(C)(O)CN1c2cccnc2C(N)=CC1Cc1ccccc1` (centres undefined) returned a melting point of 211 to 213 °C.

`CN(CC1=NC(=S)N=N1)C(COCc1cc(C(F)(F)F)cc(C(F)(F)F)c1)C(c1ccccc1)c1ccccc1` (centres undefined): the melting point was 192 to 194 °C.

The compound `COC(=O)CCC(=O)c1ccc(SC(=O)N(C)C)cc1` showed a melting point of 98 to 100 °C.

`N=C(N)NC(=O)c1cn(-c2nccc3ccccc23)c2ncccc12` had a melting point of 250 °C.

In turn, `COC(=O)N[C@@H]1CN2C(=O)N(c3cc(Cl)nc(Cl)c3)C(=O)[C@@]2(Cc2ccc(OC(F)(F)F)cc2)C1` returned a melting point of 120 °C.

Regarding `CC(C)n1c(=O)nc(-c2ccc3c(c2)OCCO3)c2cc3c(cc21)OCO3`, the melting point was in the range of 214 to 217 °C.

The compound `COc1ccc(C(=O)Nc2ccc3ccc(Oc4c(C)cccc4C)nc3n2)cc1` returned a melting point of 174 °C.

Turning to `CN1CCN(C2=Nc3ccccc3Nc3ccsc32)CC1`, the melting point is 202 to 206 °C.

With `CCCCSC(=S)N1Cc2[nH]c3ccccc3c2CC1CO` (centres undefined), the melting point is 60 to 63 °C.

Turning to `COc1ccc(C)cc1NC(=O)Nc1ccc2c(c1)CCN(C(=O)Nc1ccc(OCCO)cc1C(F)(F)F)C2`, the melting point lay within 122 to 124 °C.

`COc1ccc(C(=O)c2ccc(=O)[nH]c2C=CN(C)C)cc1`: the melting point fell in the range of 216 to 218 °C.

As to `CN(C)Cc1ccc(NC(=O)C2=Cc3cc(-c4ccccc4)ccc3CC2)cc1`, the melting point is 182 to 184 °C.

As to `Cn1nc(N)c(C(N)=O)c1N`, the melting point is 213 to 215 °C.

`CC(C)(C)OC(=O)[C@@H]1CS[C@H](c2ccccc2)N1C(=O)CNC(=O)Nc1cccc(C(=O)O)c1`: the melting point is 134 °C.

Compound `NC(=O)OC1CCN(C(=O)Cn2c(=O)sc3ccc(Cl)cc32)CC1` came in with a melting point of 210 to 212 °C.

As to `O=C(NCCC(=O)N1CCOCC1)c1ccc(-c2ccc3nnn(Cc4ccc5ncccc5c4)c3n2)cc1F`, the melting point is 212 to 215 °C.

In turn, `O=C(NCC(F)(F)F)c1ccc(C=NO)cc1` gave a melting point of 153 to 154 °C.

For the compound `CN(C)CCn1c2c(c3ccccc31)CCS(=O)(=O)CCC2`, the melting point was in the range of 154 to 155 °C.

`COc1c(Cl)ccc(C(=O)O)c1F`: the melting point is 183 to 184 °C.

As for `NC(=O)c1nnn(Cc2ccc(C(Cl)=C(Cl)Cl)cc2)c1N`, the melting point is 200 to 203 °C.

In turn, `Cc1sc(NS(=O)(=O)c2c(Cl)cc(Cl)cc2Cl)nc1CC(=O)N1CCOCC1` had a melting point of 216 to 217 °C.

As for `CCOC(=O)C1=C(C)Nc2cc[nH]c(=O)c2C1c1cccs1` (centres undefined), the melting point fell in the range of 284 to 285 °C.

In the case of `CN(C)/C=C/C(=C(C#N)C#N)c1ccc2cc(N(C)C)ccc2c1`, the melting point lay in the range of 213 to 215 °C.

As for `c1ccc(OCCSCc2nnc(-c3ccc(OCCN4CCOCC4)cc3)o2)cc1`, the melting point is 70 to 72 °C.

`Cc1nc2c(O)c(C(=O)[C@@H]3OC(C)(C)O[C@H]3c3ccccc3)ccc2n1C1CC1` gave a melting point of 153 °C.

Consider `O=C(Oc1ccc(Cl)cc1)c1c2ccccc2nc2ccccc12`, for which the melting point amounted to 170 °C.

As for `N=c1ccccn1COc1ccccc1Br`, the melting point is 62 to 64 °C.

The compound `CCCc1c(C(=O)CC)c2ccc(C(N)=O)cc2n1Cc1ccccc1Cl` came in with a melting point of 151 to 152 °C.

As for `CNc1nc(-c2cccc(NC(=O)c3ccnc(Cl)c3)c2)c2cc(OC)c(OC)cc2n1`, the melting point is 151 to 153 °C.

For the compound `CCCC(CNc1cc(Cl)ccc1C(=O)O)C(=O)O` (centres undefined), the melting point amounted to 206 °C.

As for `CCC(CC)c1ccc(Cl)c2nc3n(c12)CC(C)N3c1cnc(N(C)C)cc1C` (centres undefined), the melting point lay in the range of 204 to 206 °C.

Turning to `CCOC(=O)/C=C(\C)c1ccc(C2COc3c(C)c(C)c(NC(=O)CC(C)(C)C)c(C)c32)cc1` (centres undefined), the melting point lay within 179 to 180 °C.

Regarding `CC(C)OC(=O)C(C(=O)Nc1ccc(C(F)(F)F)cc1)=C1SCS1`, the melting point is 151 to 152 °C.

`CC(Cl)OC(=O)Oc1c(Br)cc(C#N)cc1Br` (centres undefined) displayed a melting point of 91 to 93 °C.

The compound `Cc1c(Cc2ccc([N+](=O)[O-])cc2)c(=O)oc2cc(OCC#N)cc(OCC#N)c12` gave a melting point of 178 to 185 °C.

As to `CCOC(=O)NC(=O)c1nn(-c2cc(Cl)c(C(C)(C)C#N)c(Cl)c2)c(=O)[nH]c1=O`, the melting point amounted to 110 °C.

For the compound `COc1ccc(CNc2cc(Cl)ncc2C=O)cc1Cl`, the melting point lay in the range of 146 to 148 °C.

In turn, `CC(C)COC(=O)Nc1cc(F)c(C2=CCSCC2)c(F)c1` displayed a melting point of 136 to 137 °C.

With `O=C(O)C1=Cc2cc(Br)cc(Br)c2OC1C(F)(F)F` (centres undefined), the melting point lay within 225 to 226 °C.

The compound `N#CC(C(=O)O)=C1Nc2ccccc2O1` registered a melting point of 185 to 187 °C.

In turn, `Nc1nc2c(ncn2CC(CO)CCO)c(=O)[nH]1` (centres undefined) came in with a melting point of 235 °C.

`Cc1c(-c2ccccc2)[nH]c(=O)n1C1CCN(CCc2ccccc2)CC1` showed a melting point of 153 to 155 °C.

The compound `CC(=O)c1ccc(Cl)cn1` displayed a melting point of 58 to 65 °C.

As to `ClC1(Cl)C(c2ccccc2)C1(c1ccccc1)c1ccccc1` (centres undefined), the melting point fell in the range of 106 to 107 °C.

With `CNC(=O)c1cc2c(Oc3ccc(CO)cc3)cncc2s1`, the melting point lay within 195 to 196 °C.

In turn, `CC(=O)Nc1ccc(S(=O)(=O)Nc2nnc(C(C)(C)C)s2)cc1` had a melting point of 137 to 138 °C.

In turn, `N#Cc1ccc(-c2cccc(-c3nc4cc(C#N)ccc4[nH]3)c2)nc1` came in with a melting point of 281 to 282 °C.

Compound `Cc1c(-c2ccnc(Nc3ccc(C(=O)N4CCOCC4)cc3)n2)cccc1[N+](=O)[O-]` showed a melting point of 187 to 188 °C.

`CC1(C)CC(NS(C)(=O)=O)c2ccccc21` (centres undefined): the melting point lay within 117 to 119 °C.

`Cc1cc(C(O)C[N+](=O)[O-])cc(C)c1Oc1ccc([N+](=O)[O-])c(Nc2ccc(C#N)cc2)n1` (centres undefined) gave a melting point of 230 to 234 °C.

Compound `OC(CNCCC1c2ccccc2COc2ccccc21)COc1ccccc1` (centres undefined) yielded a melting point of 136 to 138 °C.

`CSC1CC(=O)N1CC(=O)CS(=O)(=O)c1ccccc1` (centres undefined) registered a melting point of 82 to 84 °C.

In turn, `COc1cc(C=C(C#N)C(N)=O)cc(OC)c1OC` displayed a melting point of 128 to 130 °C.

Compound `CCCc1c(O)cc2oc3cccn3c(=O)c2c1O` returned a melting point of 170 to 171 °C.

`CC(=O)Nc1ccc(OC(C)C(=O)O)cc1` (centres undefined) showed a melting point of 170 to 172 °C.

Source of the values: a melting point compilation (Tetko et al.; mined from patent text by program, amines drawn as free bases though some values may be those of a salt).
